Values belong to the compound of their own block, whether it stands above or below them.
Columns and labels:
GluD2-A654T-R710W = biological target: T1, GluD2-A654T-R710W (Rattus norvegicus, UniProt Q63226, A654T/R710W); assay: TEVC of constitutive current, Xenopus oocytes expressing GluD2-A654T-R710W; format: cell-based
T1 construct: expressed in transfected cells; host or cells: Xenopus laevis oocytes injected with cRNA
T1 sequence (Q63226 24-1007 A654T/R710W): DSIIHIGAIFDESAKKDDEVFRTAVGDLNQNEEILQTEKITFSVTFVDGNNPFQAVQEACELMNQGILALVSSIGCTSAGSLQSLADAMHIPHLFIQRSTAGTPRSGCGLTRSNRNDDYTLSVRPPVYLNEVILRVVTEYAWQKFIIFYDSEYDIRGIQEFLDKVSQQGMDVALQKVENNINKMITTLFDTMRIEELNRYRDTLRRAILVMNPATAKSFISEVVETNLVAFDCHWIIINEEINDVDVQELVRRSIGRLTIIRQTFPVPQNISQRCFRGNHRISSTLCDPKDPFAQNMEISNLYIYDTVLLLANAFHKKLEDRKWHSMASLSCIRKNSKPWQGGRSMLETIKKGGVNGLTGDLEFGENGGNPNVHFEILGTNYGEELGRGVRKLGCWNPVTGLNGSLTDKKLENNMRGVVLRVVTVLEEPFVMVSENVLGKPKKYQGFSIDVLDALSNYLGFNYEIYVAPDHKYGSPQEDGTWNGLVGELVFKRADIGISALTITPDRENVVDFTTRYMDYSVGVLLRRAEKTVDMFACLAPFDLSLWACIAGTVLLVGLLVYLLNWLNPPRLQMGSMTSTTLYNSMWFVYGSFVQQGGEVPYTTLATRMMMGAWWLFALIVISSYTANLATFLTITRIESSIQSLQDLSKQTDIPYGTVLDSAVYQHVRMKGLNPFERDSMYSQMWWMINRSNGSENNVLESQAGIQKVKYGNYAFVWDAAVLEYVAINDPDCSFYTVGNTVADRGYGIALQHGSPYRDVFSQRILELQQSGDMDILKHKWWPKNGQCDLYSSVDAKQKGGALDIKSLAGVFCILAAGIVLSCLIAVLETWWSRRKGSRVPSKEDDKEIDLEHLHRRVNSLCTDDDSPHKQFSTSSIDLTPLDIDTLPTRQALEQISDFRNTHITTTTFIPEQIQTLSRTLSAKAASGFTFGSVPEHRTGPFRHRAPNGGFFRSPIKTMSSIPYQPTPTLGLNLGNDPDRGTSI
Excerpt: Human GluD1 (GRID1) and rat GluD2 (Grid2) cDNAs were introduced into the pGEM-HE and pCI-neo vectors. GRID1 (NM_017551.3) gene fragments were synthesized by Integrated DNA Technologies and cloned into empty vectors using InFusion cloning (Clontech). […] However, rat and human GluD2-encoding cDNA are identical in the M3 domain in which many of the variants we studied reside (see Supplementary Fig. S1). The full open reading frame for both constructs were verified by Sanger sequencing (Eurofins) and the full plasmid sequence was verified by whole plasmid sequencing (plasmidsaurus). Variant cDNA changes identified in patients were introduced into the cloned human GRID1 (NM_017551.3) in pGEM-HE and cloned rat Grid2 cDNA sequence (NM_024379.1) in pGEM-HE vector using Quikchange Lightning (Agilent) protocol according to the manufacturer’s instructions. Vectors were linearized and cRNA was synthesized using T7 RNA mMESSAGE kit (Invitrogen).
Xenopus laevis oocytes were prepared from ovaries purchased from Xenopus 1 (Dexter, MI) as previously described, [68] and incubated at 16°C in culture Barth’s solution (in mM) 88 NaCl, 2.4 NaHCO3, 1 KCl, 0.33 Ca(NO3)2, 0.41 CaCl2, 0.82 MgSO4, 10 HEPES, pH 7.4 with NaOH, supplemented with 1 U/ml penicillin and 1 μg/ml streptomycin. Oocytes were injected with approximately 5–40 ng RNA per oocyte and then incubated at 16–19°C for 1–3 days in culture Barth’s solution. […] Two-electrode voltage clamp (TEVC) recordings were performed as previously described. Unless otherwise specified, extracellular solution contained (in mM) 90 NaCl, 3 KCl, 0.5 BaCl2, 0.01 EDTA, 10 HEPES, and was brought to pH 7.4 with NaOH. The oocytes were placed in a dual track recording chamber and gravity perfused with solution exchange controlled via a computer-driven 8-valve positioner (Digital MVP Valve). […] Recording electrodes were filled with 0.3 M KCl, and currents were recorded with membrane voltage held at −40 mV. To establish constitutive activity of recombinant receptors when compared to wild type receptors, we used the oocyte recording solution described above, but with 90 mM N-methyl-D-glucamine (NMDG) chloride replacing 90 mM NaCl. […] For Ca^2+ concentration-response curves, choline chloride was used to maintain equimolar concentrations of Cl^− ions in the extracellular solution across the changing concentrations of calcium chloride. All compounds used in this study for concentration-response oocyte recordings were dissolved in deionized water as 50–100 mM stock solutions. In some rescue pharmacology experiments, we substituted 1 mM CaCl2 for 0.5 mM BaCl2 to evaluate Ca^2+-dependent control of receptor responses.

GluD2-A654T receptor = biological target: GluD2-A654T receptor; set-up: method as in PMID 12606689; conditions: read-out: Pentamidine IC50; cited from earlier work

Effect on constitutive current, in words (GluD2-A654T-R710W; compared to GluD2-A654T controls): increased Ca^2+ potency
Ca2+ % Max (NMDG+ − Na+) Mean ± SEM (GluD2-A654T-R710W; normalized to NMDG+ − Na+ difference current): 245 ± 15 (9) %
EC50 (GluD2-A654T-R710W; potentiation of constitutive current, read-out: Ca2+ EC50 [95% CI]): 80 µM
Ca2+ EC50 A654T/EC50 variant (GluD2-A654T-R710W; ratio): 1.88
SMILES: [Ca+2] [Ca^2+]

D-serine % Max (NMDG+ − Na+) Mean ± SEM (GluD2-A654T-R710W; percent of constitutive leak current (NMDG+/Na+ difference current)): 42 ± 3.5 (14) %
SMILES: N[C@H](CO)C(=O)O [D-serine]

SMILES: N=C(N)c1ccc(OCCCCCOc2ccc(C(=N)N)cc2)cc1 [Pentamidine, pentamidine]
IC50 (GluD2-A654T receptor): 11 µM

— PMC10840383, “Clinical features, functional consequences, and rescue pharmacology of missense GRID1 and GRID2 human variants” (Human Molecular Genetics, 2023)
